From paper PMC3404088, “Development of a Small D-Enantiomeric Alzheimer’s Amyloid-β Binding Peptide Ligand for Future In Vivo Imaging Applications” (PLoS ONE, 2012) come the findings set out here.

The target of the assay is T1, Aβ1–42 monomers (Homo sapiens, UniProt P05067).
T1 construct: Aβ1–42 peptide film was prepared from lyophilized powder (Bachem); purchased Bachem
Nature of the assay: ELISA, compound binding to Aβ1–42 peptide film (predominantly monomers). As to conditions: 10 µg/ml compound; optical density after pNPP incubation; value of one single experiment only. Here is the method: Aβ1–42 peptide film was prepared from lyophilized powder (Bachem). The powder was reconstituted in HFIP to a final concentration of 1 mM, sonicated for 15 min at room temperature (RT), agitated overnight (ON), and aliquoted into non-siliconized microcentrifuge tubes (12 µl corresponding to 55 µg). The HFIP was evaporated under a stream of argon. The resulting peptide film was vacuum dried for 10 min and stored at -80°C. For direct use as peptide film, an aliquot of Aβ1–42 peptide film was reconstituted with 0.54% dimethylsulphoxide (DMSO) in phosphate buffered saline (PBS) to obtain a final concentration of 10 µg/ml and then used for the ELISA as described below. To prepare fibrils, 55 µg aliquot of peptide film was dissolved in 55 µl of 50 mM Tris-HCl, pH 7.4 and incubated at 37°C for five days. Next, the sample was centrifuged (10’000 rpm for 5 min) and the pellet was diluted in 50 mM Tris-HCl, pH 7.4.
Aβ1–42 peptide preparations were diluted in 0.05 M bicarbonate-carbonate buffer pH 9.6, to the final concentration of 10 µg/ml and coated onto ELISA plates (MaxiSorp, Nunc). After blocking (PBS; 0.05% Tween; 1% BSA), plates were incubated with 2- or 3-fold dilutions of D-compounds (starting concentration: 10 µg/ml) and incubated for 2 h at 37°C. Plates were then washed and incubated for 2 h at 37°C with the detection antibody Rabbit-a-fluorescein isothiocyanate-AP (Sigma; 1∶10’000 dilution) followed by the incubation for 2.5 h at room temperature (RT) with 1 mg/ml of phosphatase substrate (pNPP, Sigma). The absorbance signal was read at 405 nm wavelength using a Tecan plate reader (Tecan Group Lt, Männedorf, Switzerland).
ELISA plates (MaxiSorp, Nunc) were coated with anti-Aβ antibody 6E10 (Covance) at a concentration of 5 µg/ml. Either monomeric Aβ1–42 peptide film (mainly monomeric) or Aβ1–42 fibrils, which were prepared as described above, were diluted in PBS to the final concentration 10 µg/ml and mixed with 10-fold dilutions of D-peptide compounds in Eppendorf tubes (starting concentration of D-peptide compounds: 10 µg/ml). The tubes were incubated for 2 h at 37°C. Next, samples were distributed onto the ELISA plate and kept for 2 h at 37°C. Plates were washed and incubated for 2 h at 37°C with the detection antibody Rabbit-a-fluorescein isothiocyanate-AP (Sigma; 1∶10′000 dilution) following the incubation overnight (ON) at RT with 1 mg/ml of phosphatase substrate (pNPP, Sigma). The absorbance signal was read at 405 nm wavelength using the Tecan plate reader (Tecan Group Ltd, Männedorf, Switzerland).
To verify the SPR results, ELISA was employed to assay the interaction of the ACI-80 derivatives ACI-80-Kϕ, ACI-81-Kϕ, ACI-82-Kϕ, ACI-83-Kϕ, ACI-84-Kϕ, ACI-85-Kϕ, ACI-86-Kϕ, ACI-87-Kϕ, [^19F]-ACI-87-Kϕ, ACI-88-Kϕ, [^19F]-ACI-88-Kϕ, ACI-89-Kϕ, [^19F]-ACI-89-Kϕ) with Aβ1–42 fibrils and Aβ peptide film in solution containing mostly monomers and smaller oligomers (Table 4). To avoid any bias by possible conformational influences the ELISA has been carried out in two versions, once with immobilized antibody and once with immobilized Aβ1–42 as described in the methods section. Both assays yielded similar results and confirmed each other. […] Panels A and B in Figure 2 show the results for binding to Aβ1–42 fibrils and panels C and D in Figure 2 show the results for binding to freshly prepared Aβ1–42 peptide film, which contains mostly monomeric Aβ. In Table 4, the performance of the peptides is expressed relative to that of ACI-80-Kϕ.

Square brackets hold non-standard residues; d marks the D form. Peptide text beside a SMILES is read from it. * marks the point of attachment. 5FAM = O=C1OC2(c3ccc(O)cc3Oc3cc(O)ccc32)c2ccc(C(=O)*)cc21

T1 sequence (P05067 672-713 limits assumed): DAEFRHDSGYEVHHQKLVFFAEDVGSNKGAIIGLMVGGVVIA

`CC[C@@H](C)[C@@H](NC(=O)[C@@H](Cc1c[nH]cn1)NC(=O)[C@@H](CCCNC(=N)N)NC(=O)[C@@H](Cc1ccc(O)cc1)NC(=O)[C@@H](Cc1c[nH]cn1)NC(=O)[C@@H](CO)NC(=O)[C@H](N)CCC(N)=O)C(=O)N[C@H](CO)C(=O)N1CCC[C@@H]1C(=O)N[C@H](C)C(=O)N[C@H](CCC(N)=O)C(=O)N[C@H](CCCCN)C(=O)N[C@H](CCCCNC(=O)c1ccc2c(c1)C(=O)OC21c2ccc(O)cc2Oc2cc(O)ccc21)C(=O)O` [ACI-87-Kϕ] (H-[dQ][dS][dH][dY][dR][dH][dI][dS][dP][dA][dQ][dK][dK](5FAM)-OH; N-terminus and C-terminus assumed): the “binding value, binding Aβ1–42 monomers” value was “*0.79”. The entry for `CC[C@@H](C)[C@@H](NC(=O)[C@@H](Cc1c[nH]cn1)NC(=O)[C@@H](CCCNC(=N)N)NC(=O)[C@@H](Cc1ccc(O)cc1)NC(=O)[C@@H](Cc1c[nH]cn1)NC(=O)[C@H](N)CO)C(=O)N[C@H](CO)C(=O)N1CCC[C@@H]1C(=O)N[C@H](C)C(=O)N[C@H](CCC(N)=O)C(=O)N[C@H](CCCCN)C(=O)N[C@H](CCCCNC(=O)c1ccc2c(c1)C(=O)OC21c2ccc(O)cc2Oc2cc(O)ccc21)C(=O)O` [ACI-88-Kϕ] (H-[dS][dH][dY][dR][dH][dI][dS][dP][dA][dQ][dK][dK](5FAM)-OH; N-terminus and C-terminus assumed) is “*1.29”; for `CC[C@@H](C)[C@@H](NC(=O)[C@@H](Cc1c[nH]cn1)NC(=O)[C@@H](CCCNC(=N)N)NC(=O)[C@@H](Cc1ccc(O)cc1)NC(=O)[C@@H](Cc1c[nH]cn1)NC(=O)[C@@H](CO)NC(=O)[C@H]1CCCN1)C(=O)N[C@H](CO)C(=O)N1CCC[C@@H]1C(=O)N[C@H](C)C(=O)N[C@H](CCC(N)=O)C(=O)N[C@H](CCCCN)C(=O)N[C@H](CCCCNC(=O)c1ccc2c(c1)C(=O)OC21c2ccc(O)cc2Oc2cc(O)ccc21)C(=O)O` [ACI-89-Kϕ] (H-[dP][dS][dH][dY][dR][dH][dI][dS][dP][dA][dQ][dK][dK](5FAM)-OH; N-terminus and C-terminus assumed) it is “*1.06”.
